This note sets out measurements from PMC3759356 (Cancer cell, 2013).

The target of the assay is T1, BARD1 (Homo sapiens, UniProt Q99728).
T1 sequence (Q99728 568-777 limits assumed): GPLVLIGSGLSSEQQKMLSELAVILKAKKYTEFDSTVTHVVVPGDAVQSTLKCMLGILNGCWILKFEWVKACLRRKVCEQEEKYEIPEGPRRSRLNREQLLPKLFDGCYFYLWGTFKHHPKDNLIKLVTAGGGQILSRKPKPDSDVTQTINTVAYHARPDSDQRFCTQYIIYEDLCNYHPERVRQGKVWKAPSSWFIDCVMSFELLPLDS
As to the kind of experiment: ITC. The class given is binding.

The structures appear in SMILES notation.

As a reminder, the Kd is the constant that tells how readily two partners part at equilibrium. A lower Kd goes with a tighter complex. As for `Nc1ncnc2c1ncn2[C@@H]1O[C@H](COP(=O)(O)OP(=O)(O)OC[C@H]2OC(O)[C@H](O)[C@@H]2O)[C@@H](O)[C@H]1O` (stereo partly shown) [ADP-ribose], the Kd is around 250 nM.
